As usually defined, the melting point is the temperature, or range, at which the solid turns liquid.

Structures are written as SMILES.

The values below come from a melting point compilation (Tetko et al.; mined from patent text by program, amines drawn as free bases though some values may be those of a salt).

Consider `CC(C)(C)c1ccc(C(O)CCCN2CCC(C3(O)c4ccccc4CCc4ccccc43)CC2)cc1` (configuration not stated), for which the melting point lay within 142 to 144 °C.

On to `O=C(O)C[S@](=O)C(c1ccccc1)c1ccccc1`, for which the melting point fell in the range of 118 to 120 °C. Compound `CCCC(=O)Nc1c(C(=O)c2cccc(C)c2)[nH]c2cc(Cl)ccc12` gave a melting point of 127 to 130 °C. The compound `O=C(O)c1cc(SCCO)ccc1O` had a melting point of 136 °C. Compound `c1ccc(CCN2CCC(Nc3nc4ccccc4n3CCc3cccs3)CC2)cc1` registered a melting point of 118 °C. Compound `CCc1ccc(N(Cc2ccc(N(C)C)cc2)C(=O)C2CCCc3ccccc32)cc1` (configuration not stated) yielded a melting point of 109 to 110 °C. Turning to `CS(=O)(=O)c1cc(C(O)C2CCCCC2)c2ccccc2n1` (configuration not stated), the melting point was 83 °C. The same measure for `NS(=O)(=O)c1cccc(-c2cccc(-c3nc(-c4ccc(C(F)(F)F)c(F)c4)cc(C(F)(F)F)n3)c2)c1`: 228 °C; for `CCCc1c(OCCCS(=O)(=O)c2ccc(C(=O)OC)cn2)ccc(C(C)=O)c1O`: 114 to 116 °C.

`CCCCCCc1ccc(-c2ccc(OC(=O)C3(C#N)CCCC(C)C3)cc2)cc1` (configuration not stated) gave a melting point of 51 °C.

The compound `CC(C)S(=O)(=O)c1ccccc1Nc1nc(Nc2ccc3c(c2)C(C)(C)CCC(=O)N3C)ncc1Cl` returned a melting point of 195 to 197 °C. With `NC(=O)Cc1ccc(-c2cnc3[nH]c(=O)n(CC4CCCCC4)c3n2)cc1`, the melting point lay in the range of 272 to 274 °C. Next, `O=C(NCC(=O)N1CCCCC1)OCc1ccccc1`: 111 to 112 °C; `O=C(c1ccn(S(=O)(=O)c2ccccc2)c1)c1ccc(Cl)cc1Cl`: 122 °C.

Turning to `CN1C(=O)CN(C(=O)Cl)C(c2ccccc2)c2cc(Cl)ccc21` (single isomer, unassigned; (-)), the melting point was 201 to 204 °C. `Cc1nc(Br)c(C=O)n1Cc1cc2c(cc1Cl)OCO2` came in with a melting point of 141 °C. `CC(=O)SCC(C(=O)NC(C)C(=O)O)C(C)c1ccc(F)cc1` (configuration not stated) registered a melting point of 93 °C. In turn, `O=C(Cc1cccc2ccccc12)Nc1cc([C@H]2C[C@@H](NC(=O)c3cccc([N+](=O)[O-])c3)C2)[nH]n1` showed a melting point of 124 °C. The same measure for `C=CCOC(=O)NC(C)(C)c1ccc(-c2nc(Nc3ccc(CCN4CCOCC4)cc3)ncc2Cl)cc1`: 65 to 69 °C; for `CC(C)C(=O)c1nccnc1SCc1ccco1`: 57 to 58 °C. `CCCCNc1cc(C(=O)O)cc(S(N)(=O)=O)c1Sc1ccc(N)cc1` gave a melting point of 232 to 234 °C. Compound `COc1cccc(Cc2cc(-c3ccccc3)c(-c3ccccc3)s2)c1` had a melting point of 100 to 102 °C.

In turn, `COc1ccccc1C1=C(C#N)C(c2cccc3nonc23)c2c[nH]nc2N1` (configuration not stated) registered a melting point of 180 °C. The compound `C#CCOc1cc(-c2ncnc(C)c2C)c(F)cc1Cl` displayed a melting point of 131 to 133 °C. `COc1cc(N)c(Cl)cc1C(=O)NCC1CCN(CCCCCSc2ccccc2)CC1` registered a melting point of 143 to 144 °C. Next, `CC(C)NC(=O)N1N=C(c2ccc(N)cc2)c2cc(Cl)ccc2CC1C` (configuration not stated): 100 to 102 °C.

`COc1ccc(C2C(C(=O)O)C2(C)C)cc1` (configuration not stated) displayed a melting point of 115 °C.

In turn, `COc1ccc(C2(COC(C)=O)CCC(=O)CC2)cc1` had a melting point of 86.5 to 88 °C. Next, `CC(C)(C)c1cc(CCC(=O)NCCNc2ccc(C#N)cc2)cc(C(C)(C)C)c1O`: 146 to 148 °C; `NC(=O)[C@@H]1[C@H](Nc2ccnc3[nH]c(-c4ccc(N5CCOCC5)cc4)nc23)[C@H]2C=C[C@@H]1C2`: 240 to 244 °C; `Cn1c(=O)c2ccccc2n(CCCBr)c1=O`: 90 to 96 °C. In the case of `CC(C)[C@H](NC(=O)OCc1ccccc1)C(=O)NCCCNC(=O)[C@@H](NC(=O)OCc1ccccc1)C(C)C`, the melting point was 211 to 212 °C. The compound `Cn1nnnc1CC(O)(Cn1cncn1)c1ccc(Cl)cc1Cl` (configuration not stated) gave a melting point of 182 to 184 °C. Compound `O=c1oc(-c2ccccc2)cc(O)c1C(CC1CC1)SC1CCCC1` (configuration not stated) came in with a melting point of 75 to 80 °C.

For `C#CCOc1cc(-n2nnn(CC)c2=O)c(Cl)cc1F`, the melting point lay within 88 to 89 °C.

In turn, `CCOC(=O)c1sc(Cl)nc1-c1ccccc1` showed a melting point of 56 to 57 °C. As for `CC(C)(C)OC(=O)NCCNC(=O)c1cscn1`, the melting point fell in the range of 112 to 118 °C.

The compound `O=C(NO)c1ccc(CNC(=O)c2[nH]c(-c3ccoc3)cc2-c2ccc(O)cc2)cc1` displayed a melting point of 159 to 160 °C. The compound `C[C@H](NC(=O)OC(C)(C)C)[C@@H]1CCN(c2nc3c(cc2F)c(=O)n(N)c(=O)n3C2CC2)C1` registered a melting point of 175 to 177 °C.

On to `Oc1ccc(CCCCCCc2ccc(O)cc2)cc1`, for which the melting point lay in the range of 143 to 144 °C. Next, `O=C(NC1c2ccccc2-c2[nH]c(=O)c3nccn3c21)c1ccccc1` (configuration not stated): 300 °C. The same measure for `CN1CC=C(c2cccc3ccc(O)cc23)CC1`: 182 to 184 °C. In turn, `CCOC(=O)c1c(CN(CC)CC)nc2sc3c(c2c1-c1ccc(OC)c(OC)c1)CCN(S(=O)(=O)c1ccccc1)C3` registered a melting point of 161 to 162 °C. The same measure for `CCCCCCCCc1ccc(C(O)C(=O)c2ccccc2)cc1` (configuration not stated): 85 to 89 °C; for `CCCCCCCCCCNC(=S)Nc1ccc(NNC=O)cc1`: 150 to 152 °C. `O=C(O)c1cn(-c2ccc(F)cc2)c2cc(F)c(F)cc2c1=O` had a melting point of 252 to 256 °C. In turn, `Cc1c(-c2cccnc2)n(CCCCCC(=O)O)c2ccccc12` returned a melting point of 111 to 113 °C. In turn, `CC(C#CC1=C(C)C(=O)C(O)CC1(C)C)=CCO` (configuration not stated) registered a melting point of 84 to 86 °C. In turn, `Cc1c(C(=O)O)ccc(Cl)c1O` registered a melting point of 191 °C.

`COc1cc(OC)c(C(C)=O)c(O)c1OC`: the melting point was in the range of 114 to 116 °C. The compound `CCCCOc1cc(/C=C(\OCC)C(=O)O)ccc1OCCc1ccc(OS(=O)(=O)CCCC)c(F)c1` showed a melting point of 99 °C. Turning to `CS(=O)(=O)N1CCN(c2cc3ccccc3c(=O)[nH]2)CC1`, the melting point is 257 to 259 °C.

`COc1ccc(S(=O)(=O)N2C(=O)C(O[Si](C)(C)C)(c3ccccc3OC)c3cc(Cl)c(C)cc32)c(OC)c1` (configuration not stated) came in with a melting point of 190 to 191 °C. Regarding `CN(C)CCCn1c(-c2ccc(Br)cc2)cc2c1CCSC2`, the melting point is 88 to 90 °C. Turning to `O=Cc1cc2cc(OCc3ccccc3)c(F)cc2nc1Cl`, the melting point came out at 228 °C. The same measure for `CC(C#CC1CC(Oc2ccc(C(F)(F)F)cc2)C1)N(O)C(N)=O` (single isomer, unassigned; (+)): 113 to 114 °C; for `CCOc1cc(CCCC2OC(=O)NC2=O)ccc1OCc1coc(-c2ccccc2)n1` (configuration not stated): 119 to 120 °C; for `COc1cc(N)c(N)cc1C(N)=O`: 181 to 183 °C. Consider `c1ccc(-c2ccc3sc(-c4nc(COc5ccc(CCCn6ccnc6)cc5)co4)cc3c2)cc1`, for which the melting point lay in the range of 168 to 169 °C.

With `COc1ccc(C=O)cc1-c1cccs1`, the melting point lay within 137 to 138 °C. For `COc1ccc(/C=C/C2=NS(=O)(=O)c3ccccc3N2)cc1OC`, the melting point was 276 to 279 °C.

For `CS(=O)(=O)Nc1ccc2c(c1)C(=NO)CC1(CCN(CCc3ccccc3)CC1)O2`, the melting point fell in the range of 95 to 99 °C.

For `CC(=C1SC(=O)NC1=O)c1ccc(OCCOc2c(-c3ccc(F)cc3)n(C)c3cc(Cl)ccc3c2=O)cc1`, the melting point was 292 to 296 °C. Turning to `COc1ccc(C(=NO)c2c(F)cccc2F)c(Cl)c1Cl`, the melting point fell in the range of 180 to 186 °C.

`O=C(NC1CCCCC1)NC1CCCc2sccc21` (configuration not stated) showed a melting point of 222 to 225 °C. For `CNC(=O)c1ccc(NCC(=O)O)cc1`, the melting point came out at 234 °C. In the case of `COc1ccc(-c2nc([N+](=O)[O-])n(C(=O)c3ccccc3)c2-c2ccc(OC)cc2)cc1`, the melting point lay in the range of 161 to 163 °C. `CCCCCCCCOC(=O)c1cc(=O)c2c3c(ccc2o1)-c1ccc(Cl)cc1C(C)(C)O3`: the melting point lay in the range of 111 to 113 °C. The same measure for `CCCN1CC(c2ccc(S(C)(=O)=O)cc2)=C(Oc2ccccc2)C1=O`: 163 to 165 °C. In the case of `CCCCc1nc(SC)c(C(=O)O)n1Cc1ccc(-c2ccccc2S(=O)(=O)NC(=O)C(c2ccccc2)c2ccccc2)cc1`, the melting point is 205 °C.

With `Cc1nc(-n2cc(C(=O)NCc3ccccc3)nn2)sc1C(=O)NCc1ccccc1`, the melting point fell in the range of 178 to 180 °C. In turn, `O=C(O)CN(C(=O)CN1C(=O)c2ccccc2C1=O)c1ccccc1` yielded a melting point of 224 °C.

In the case of `COc1cc(Cc2cnc(NC(C)=N)nc2N)cc(OC)c1OC`, the melting point was 207 °C. The same measure for `OC1CSC(Oc2cncc(C(F)(F)F)c2)C(O)C1O` (configuration not stated): 160 to 161 °C; for `COc1ccc2[nH]cc(CCCN(CC3CC3)C3COc4c(F)ccc(C(N)=O)c4C3)c2c1` (configuration not stated): 148 to 154 °C. The same measure for `O=C(O)c1cc(-n2c(-c3ccc(F)cc3)cc3c2CCCC3)ccc1O`: 239 to 240 °C. The compound `CCOC(=O)C1=C(C)Nc2nc(N(C)C)nc(N)c2C1c1ccccc1C(F)(F)F` (configuration not stated) showed a melting point of 210 °C. Next, `C#Cc1ccc2c(c1)C(=O)CC(C)(C)S2`: 63 to 66 °C; `COC(=O)C1Cc2c([nH]c3ccccc23)C(c2cccc(OC)c2)N1` (configuration not stated): 146 °C; `CC(C)(C)CNc1nc(Cl)cc(NC(C)(C)C)n1`: 115 to 119 °C. Regarding `COc1cc(-c2cccc(Cl)c2)c2cc(C(O)(c3ccc(Cl)cc3)c3nncn3C)ccc2n1` (configuration not stated), the melting point was determined as 155 °C. Compound `Cc1c(Cc2ccc([N+](=O)[O-])cc2)c(=O)oc2cc(O)cc(O)c12` returned a melting point of 280 to 285 °C. Next, `OC1(CNc2c(Br)cnc3cc(Cl)ccc23)CCCCC1`: 151 to 154 °C. As for `Clc1nnnc(-c2cccc3ccccc23)c1Cl`, the melting point was 165 to 170 °C. As to `O=C(Nc1c(C(O)(C(F)(F)F)C(F)(F)F)ccc2ccccc12)c1cc2ccccc2s1`, the melting point lay within 132 to 134 °C. Next, `C#CCN1C(=O)COc2cc(F)c(N)cc21`: 132 to 134 °C. In turn, `C[C@H]1[C@H](c2ccccc2)OC(c2cc(Br)cc3c2OCC3)N1C` (some centres not stated) gave a melting point of 83.5 to 85.5 °C.
